Experimental data taken from US20240216410A1, “METHODS AND COMPOSITIONS FOR TREATING CANCER THERAPY-INDUCED NEUTROPENIC FEVER AND/OR GVHD” (BOARD OF REGENTS, THE UNIVERSITY OF TEXAS SYSTEM, priority 2021, published 2024).

Experiments:
[1] = Meropenem concentrations in cecal contents after subcutaneous injection (LC-MS); type: in vivo, mice; conditions: 4, 8, 24, 48 and 96 hours
Protocol: To further explore a potential causal relationship between meropenem and intestinal GVHD, the effects of meropenem on GVHD in a mouse model of allo-HSCT were examined. A method of administering meropenem to mice was first developed that would better mimic the effects of meropenem on the intestinal microbiome of patients, which is typically given every 8 hours intravenously. Previously, antibiotics were administered subcutaneously to mice (25), and meropenem concentrations were quantified in the cecal lumen of mice 4, 8, 24, 48 and 96 hours after subcutaneous injection. […] Next, drinking water was evaluated as a means of continuously administering meropenem to mice, using bacterial density quantified by 16S ribosomal RNA (16S rRNA) gene quantitative PCR (qPCR) to gauge reductions of the intestinal microbiota.
Pharmacokinetics of meropenem by Triple Quadruple liquid chromatography-mass spectrometry (LC-MS). C57BL/6 mice were treated with 10 mg of meropenem by subcutaneously injection. Cecal contents were collected prior to, 4, 8, 24, 48, and 96 hours after meropenem injection. To determine the relative abundance of meropenem in mouse cecum samples, extracts were prepared and analyzed with a THERMO […]™ TSQ […]™ triple quadruple mass spectrometer coupled with a DIONEX™ ULTIMATE™ 3000 HPLC system. […]

[2] = tested on: colonic mucus layer; experiment: Murine GVHD model: colonic mucus layer thickness (PAS staining); type: in vivo, mice; conditions: day 18; vs untreated GVHD mice and syngeneic mice
Protocol: Next, assessed was the impact of meropenem treatment on the dense colonic mucus layer of mice with GVHD.
Allo-HSCT recipient mice were treated with meropenem as in FIG. 15A and with xylose from days 13 to 20 (FIG. 18F). […] Importantly, in vitro, growth of mouse and human-derived BT in carbohydrate-poor media was augmented by xylose (FIG. 23B).
Xylose administration. D-(+)-xylose (X3877, SIGMA-ALDRICH®) was dissolved in phosphate buffer pH 8.0 with meropenem or in water without meropenem and given at a concentration of 0.5% from days 13 to 20 after allo-HSCT.
Histological and immunohistochemistry analysis. […] Pathology scores were quantified by a blinded pathologist. […] Sections were imaged using an APERIO® AT2.

C[C@@H](O)[C@H]1C(=O)N2C(C(=O)O)=C(S[C@@H]3CN[C@H](C(=O)N(C)C)C3)[C@H](C)[C@H]12 [meropenem]
meropenem concentrations in the cecum [1]: increase in meropenem concentrations in the cecum at 4 hours after injection, which rapidly declined thereafter | colonic mucus layer thickness [2]: significantly thinned colonic mucus layer
